# In patent US20040052824A1, “Micellar colloidal pharmaceutical composition containing a lipophilic active principle” (priority 2000, published 2004):
# Where two headings read alike, the source gives them in different places.
# What was measured:
# [1] = cited from earlier work
# [2] = cited from earlier work; remark: listed apart in the source
# [3] = dissolution trials: solubility of the active principle in the cosurfactant; assay type: physicochemical
# [4] = cited from earlier work; remark: listed apart in the source
# [5] = octanol/water partition coefficient
compound,measurement,setting,value
CCCSc1ccc2nc(NC(=O)OC)[nH]c2c1 [albendazole],log P,[1],3.22
CC(C)(Oc1ccc(CCNC(=O)c2ccc(Cl)cc2)cc1)C(=O)O [bezafibrate],log P,[1]; [5],3.53
Cc1c([N+](=O)[O-])cc(C(C)(C)C)c(O)c1C(=O)Nc1ccc(Br)cc1C(F)(F)F [bromoxanide],log P,[1]; [5],5.65
CC(=O)Oc1c(Br)cc(Cl)cc1C(=S)Nc1ccc(Br)cc1 [brotianide],log P,[1]; [5],5.30
CCN(CC)C(=O)Nc1ccc(OCC(O)CNC(C)(C)C)c(C(C)=O)c1 (centres unmarked) [celiprolol],log P,[1]; [5],2.07
CC(C)(Oc1ccc(C2CC2(Cl)Cl)cc1)C(=O)O (centres unmarked) [ciprofibrate],log P,[1]; [5],3.15
CC(=O)Oc1c(I)cc(I)cc1C(=O)Nc1ccc(Cl)cc1 [clioxanide],log P,[1]; [5],5.45
CCOC(=O)C(C)(C)Oc1ccc(Cl)cc1 [clofibrate],log P,[1]; [5],3.65
Cc1cc(C(C#N)c2ccc(Cl)cc2)c(Cl)cc1NC(=O)c1cc(I)cc(I)c1O (centres unmarked) [closantel],log P,[1]; [5],> 7
O=C(Nc1ccc(Br)cc1)c1cc(Br)ccc1O [dibromosalan],log P,[1]; [5],5.18
CC(=O)O[C@@]12CO[C@@H]1C[C@H](O)[C@@]1(C)C(=O)[C@H](O)C3=C(C)[C@@H](OC(=O)[C@H](O)[C@@H](NC(=O)OC(C)(C)C)c4ccccc4)C[C@@](O)([C@@H](OC(=O)c4ccccc4)[C@H]21)C3(C)C [docetaxel],solubility in water,[2],insoluble in water
Cc1c2ccncc2c(C)c2c1[nH]c1ccccc12 [ellipticine],log P,[1]; [5],4.80
COC(=O)Nc1nc2ccc(Sc3ccccc3)cc2[nH]1 [fenbendazole],log P,[1]; [5],4.26
CC(C)C(=O)Nc1ccc([N+](=O)[O-])c(C(F)(F)F)c1 [flutamide],log P,[1]; [5],3.5
Cc1ccc(C)c(OCCCC(C)(C)C(=O)O)c1 [gemfibrozil],log P,[1]; [5],3.90
"CC1=C(/C=C/C(C)=C/C=C/C(C)=C\C(=O)O)C(C)(C)CCC1 [isotretinoin, 13-cis-retinoic acid]",solubility in monoethyl ether of diethylene glycol (Transcutol),[3]; cosurfactant Transcutol,3%
CCC(C)n1ncn(-c2ccc(N3CCN(c4ccc(OCC5COC(Cn6cncn6)(c6ccc(Cl)cc6Cl)O5)cc4)CC3)cc2)c1=O (centres unmarked) [itraconazole],log P,[1]; [5],5.68
CO[C@@H]1[C@@H](O[C@@H]2O[C@H](C)[C@@H](O[C@H]3C[C@@](C)(O)[C@@H](OC(=O)CC(C)C)[C@H](C)O3)[C@H](N(C)C)[C@H]2O)[C@@H](CC=O)C[C@@H](C)[C@@H](O)/C=C/C=C/C[C@@H](C)OC(=O)C[C@H]1OC(C)=O [josamycin],log P,[1]; [5],2.39
CC[C@H](C)C(=O)O[C@H]1C[C@@H](C)C=C2C=C[C@H](C)[C@H](CC[C@@H]3C[C@@H](O)CC(=O)O3)[C@H]21 [lovastatin],log P,[1]; [5],4.04
COC(=O)Nc1nc2ccc(C(=O)c3ccccc3)cc2[nH]1 [mebendazole],log P,[1]; [5],3.10
Cc1cccc(Nc2ccccc2C(=O)O)c1C [mefenamic acid],log P,[1]; [5],5.3
OC(c1cc(C(F)(F)F)nc2c(C(F)(F)F)cccc12)C1CCCCN1 (centres unmarked) [mefloquin],log P,[1]; [5],3.36
CC1=CC(=O)c2ccccc2C1=O [menadione],log P,[1]; [5],8
CC[C@H](C)C(=O)O[C@H]1CCC=C2C=C[C@H](C)[C@H](CC[C@@H]3C[C@@H](O)CC(=O)O3)[C@H]21 [mevastatin],log P,[1]; [5],3.52
CCOC(=O)C1=C(C)NC(C)=C(C(=O)OC)C1c1cccc([N+](=O)[O-])c1 (centres unmarked) [nitrendipine],log P,[1]; [5],3.7
Cc1nccn1CC1CCc2c(c3ccccc3n2C)C1=O (centres unmarked) [ondansetron],log P,[1]; [5],2.63
O=C(Nc1cc(Cl)cc(Cl)c1O)c1c(O)c(Cl)cc(Cl)c1Cl [oxyclozanide],log P,[1]; [5],5.35
CC(=O)O[C@H]1C(=O)[C@@]2(C)[C@H]([C@H](OC(=O)c3ccccc3)[C@]3(O)C[C@H](OC(=O)[C@H](O)[C@@H](NC(=O)c4ccccc4)c4ccccc4)C(C)=C1C3(C)C)[C@]1(OC(C)=O)CO[C@@H]1C[C@@H]2O [paclitaxel],solubility in water,[2],insoluble in water
O=C1c2ccccc2C(=O)C1c1ccccc1 [phenyl indanedione],log P,[1]; [5],2.90
CC(=O)[C@H]1CC[C@H]2[C@@H]3CCC4=CC(=O)CC[C@]4(C)[C@H]3CC[C@]12C [progesterone],solubility in propylene glycol monocaprylate (Capryol),[3]; cosurfactant Capryol,5%
O=C(Nc1ccc(Oc2ccc(Cl)cc2)c(Cl)c1)c1cc(I)cc(I)c1O [rafoxanide],log P,[1]; [5],8.75
CC1=C(/C=C/C(C)=C/C=C/C(C)=C/CO)C(C)(C)CCC1 [retinol],log P,[1]; [5],5.68
CC[C@H]1OC(=O)[C@H](C)[C@@H](O[C@H]2C[C@@](C)(OC)[C@@H](O)[C@H](C)O2)[C@H](C)[C@@H](O[C@@H]2O[C@H](C)C[C@H](N(C)C)[C@H]2O)[C@](C)(O)C[C@@H](C)/C(=N\OCOCCOC)[C@H](C)[C@@H](O)[C@]1(C)O [roxithromycin],log P,[1]; [5],~2.5
CCCc1nc2c(C)cc(-c3nc4ccccc4n3C)cc2n1Cc1ccc(-c2ccccc2C(=O)O)cc1 [telmisartan],log P,[1]; [5],4.8
CN(C/C=C/C#CC(C)(C)C)Cc1cccc2ccccc12 [terbinafin],log P,[1]; [5],5.42
CC(C)(C)c1ccc(C(O)CCCN2CCC(C(O)(c3ccccc3)c3ccccc3)CC2)cc1 (centres unmarked) [terfenadine],log P,[1]; [5],3.22
c1ccc2[nH]c(-c3cscn3)nc2c1 [tiabendazole],log P,[1]; [5],2.31
OCCSCCCCCCCCCCSCCO [tiadenol],log P,[1]; [5],4.58
O=C(Nc1ccc(Br)cc1)c1cc(Br)cc(Br)c1O [tribromosalan],log P,[1]; [5],5.86
CSc1nc2cc(Cl)c(Oc3cccc(Cl)c3Cl)cc2[nH]1 [triclabendazole],log P,[1]; [5],6.45
COC(=O)[C@@H]1[C@H]2C[C@H]3c4[nH]c5ccccc5c4CCN3C[C@@H]2CC[C@@H]1O [yohimbine],log P,[1]; [5],2.73
ivermectin,partition coefficient chloroform/water: log P,[4]; chloroform/water,3
same,partition coefficient ethyl acetate/water: log P,[4]; ethyl acetate/water,4
same,solubility in water,[2],practically insoluble in water
